We go through 10 compounds from ChEMBL document CHEMBL1139249, “N,N-Dichloroaminosulfonic acids as novel topical antimicrobial agents” (Bioorg Med Chem Lett, 2009).

Converted amounts (≈) assume the structure as drawn. Where only a bound is given, the exact number is not on record here.

The nature of series [1]: Aqueous solubility at pH 4. It is filed as physicochemical. As to conditions: aqueous solution.
The nature of series [2]: Therapeutic index, ratio of CT50 for mouse L929 cells to MBC for Escherichia coli. It is filed as cell-based. As to conditions: read-out: TI.
The test system of series [3] is Candida albicans. In words: Antifungal activity against Candida albicans ATCC 10231 after 16 to 20 hrs by CLSI standard method. In kind it is functional.
A short description of series [4]: Therapeutic index, ratio of CT50 for mouse L929 cells to MFC for Candida albicans. It is filed as cell-based. As to conditions: read-out: TI.
A short description of series [5]: Cytotoxicity against mouse L929 cells. In kind it is cell-based. As to conditions: read-out: CT50 (the source's name).
Series [6] can be described thus: Therapeutic index, ratio of CT50 for mouse L929 cells to MBC for Staphylococcus aureus. In kind it is cell-based. As to conditions: read-out: TI.
The test system of series [7] is Escherichia coli. The series is described as follows: Antibacterial activity against Escherichia coli ATCC 25922 after 16 to 20 hrs by CLSI standard method. It is filed as functional.
The subject of series [8] is Staphylococcus aureus. In words: Antibacterial activity against Staphylococcus aureus ATCC 29213 after 16 to 20 hrs by CLSI standard method. In kind it is functional.
The test system of series [9] is Staphylococcus aureus. The series is described as follows: Antibacterial activity against Staphylococcus aureus MCC 91731 after 16 to 20 hrs by CLSI standard method. It is filed as functional.
For series [10], the system named is Candida albicans. The series is described as follows: Antifungal activity against Candida albicans MCC 50319 after 16 to 20 hrs by CLSI standard method. In kind it is functional.
Series [11] has as its system Escherichia coli. In words: Antibacterial activity against Escherichia coli MCC 80392 after 16 to 20 hrs by CLSI standard method. It is filed as functional.

`CC(C)(CS(=O)(=O)O)C(=O)OCC(C)(C)N(Cl)Cl` gave a half-life in series [1] of 80 days. The selectivity ratio in [2] was 8; in series [4], 2; in series [6] it was 8. The compound further yielded an MFC in series [3] of 16 mg/L (≈ 49.7 µM). In [5], the CC50 was determined as 840 mg/L (≈ 2610 µM). The MBC in [7] turned out to be 4 mg/L (≈ 12.4 µM); in series [8] it was 8 mg/L (≈ 24.8 µM).
Turning to `CC(C)(CCS(=O)(=O)O)N(Cl)Cl`, the half-life in series [1] was 174 days. Besides, the figures for the selectivity ratio in series [2], in series [4] and in series [6] were 8, 2 and 8, respectively. The MFC in [3] amounted to 16 mg/L (≈ 67.8 µM). Moreover, the CC50 in series [5] came to 1900 mg/L (≈ 8050 µM). The MBC in [7] and in [8] was 4 mg/L (≈ 16.9 µM) each time.
Consider `CC(C)(CS(=O)(=O)[O-])N(Cl)Cl.[Na+]`, for which, in series [1], the half-life was > 200 days. For the same compound, the selectivity ratio in [2] came out at 8; in series [4], 2; in [6] it was 8. Moreover, in series [5], the CC50 came to 1200 mg/L. Also, the MBC in [9] stood at 1 mg/L; in series [11] it was 4 mg/L. In [10], the MFC came out at 32 mg/L.
In series [1], `CC(C)(CCCS(=O)(=O)O)N(Cl)Cl` had a half-life of 16 days. Besides, the selectivity ratio in [2] is 8; in [4], 2; in series [6], 8. In [5], the CC50 came out at 640 mg/L (≈ 2560 µM). In addition, the MBC in series [9] and in series [11] was 8 mg/L (≈ 32 µM) throughout. Moreover, in series [10], the minimum fungicidal concentration (MFC) was > 128 mg/L.
For `CCOP(=O)(O)CC(C)(C)N(Cl)Cl`, in series [1], the half-life was > 18 days. Besides, the selectivity ratio in series [2] was 8; in series [4], 2; in [6], 8. The CC50 in series [5] worked out at 80 mg/L (≈ 320 µM). This compound had an MBC in series [9] of 2 mg/L (≈ 8 µM). The same compound gave an MFC in series [10] of 32 mg/L (≈ 128 µM).
With `CC(C)(CS(=O)(=O)CCS(=O)(=O)O)N(Cl)Cl`, the half-life in [1] was > 95 days. Also, the values for the selectivity ratio in series [2], in series [4] and in series [6] were 8, 2 and 8, respectively. In series [3], the MFC is 64 mg/L (≈ 204 µM). Also, in series [5], the CC50 came to 1820 mg/L (≈ 5790 µM). Moreover, the results for the MBC in [7] and in series [8] were 4 mg/L (≈ 12.7 µM) and 8 mg/L (≈ 25.5 µM), respectively.
On to `CC(C)(CC(=O)OCCS(=O)(=O)O)N(Cl)Cl`, for which the half-life in series [1] is > 95 days. For the same compound, the selectivity ratio in series [2] was 8; in [4], 2; in series [6] it was 8. In addition, the MFC in series [3] was found to be 64 mg/L (≈ 218 µM). In addition, in series [5], the CC50 came out at 270 mg/L (≈ 918 µM). Moreover, the MBC in series [7] and in series [8] was 2 mg/L (≈ 6.8 µM) in each case.
For `CC(=O)NS(=O)(=O)CC(C)(C)N(Cl)Cl`, the half-life in series [1] is 44 days. Also, the selectivity ratio in [2] came out at 8; in [4], 2; in series [6], 8. Also, the MFC in series [3] was determined as 64 mg/L (≈ 243 µM). Also, the MBC in [7] was 2 mg/L (≈ 7.6 µM); in series [8], 1 mg/L (≈ 3.8 µM).
As for `CC(C)(CP(=O)(O)O)N(Cl)Cl`, in series [1], the half-life is 23 days. The selectivity ratio in series [2] turned out to be 8; in series [4], 2; in series [6] it was 8. This compound displayed an MFC in series [3] of 16 mg/L (≈ 72.1 µM). Besides, the CC50 in [5] is 130 mg/L (≈ 586 µM). The MBC in [7] was found to be 8 mg/L (≈ 36 µM); in series [8], 16 mg/L (≈ 72.1 µM).
Turning to `CC(C)(COC(=O)CCS(=O)(=O)O)N(Cl)Cl`, in series [1], the half-life was 64 days. Also, the selectivity ratio in series [2] came to 8; in [4] it was 2; in series [6], 8. Further, in series [5], the CC50 was 130 mg/L (≈ 442 µM). Also, the values for the MBC in series [9] and in [7] were 1 mg/L (≈ 3.4 µM) and 2 mg/L (≈ 6.8 µM), respectively. The compound also registered an MFC in series [10] of 4 mg/L (≈ 13.6 µM).

Broadly, the half-life is the time needed for the level to fall by half in the phase considered. A high value points to slow loss. As a reminder, the MFC is the smallest concentration meeting the test's criterion for killing the fungus. Low readings indicate more potent killing, high ones less potent killing. In general, MBC refers to the lowest tested concentration that kills the bacteria rather than only halting them. A higher MBC goes with less potent killing.
